In publication PMC10307885, “A Phase 1/2 trial of SRA737 (a Chk1 inhibitor) administered orally in patients with advanced cancer” (British Journal of Cancer, 2023):
“And” between values parts separate entries of the source, which are not always exact repeats. Equal values may be shown once. “Also recorded” adds a separate entry of the source. Read-outs that look alike come from different tables or passages of the source.

How the values were obtained:
[1] = Preliminary in vitro solubility studies of SRA737 citrate drug product; type: physicochemical; details: over the physiological range
[2] = test system: advanced solid tumours (CRC, HGSOC, NSCLC, mCRPC, HNSCC); test: Tumour response by RECIST 1.1; type: in vivo, human
Description: Radiologic tumour assessments were carried out every 8 weeks, and clinical evaluations and serum tumour markers assessed every 4 weeks. Tumours were assessed using the Response Evaluation Criteria in Solid Tumors version 1.1 (RECIST 1.1). Clinical response data were summarized in cohorts defined by tumour type (CRC, HGSOC, NSCLC, mCRPC, HNSCC, or other disease). The Safety Evaluable population included all patients who received at least one dose of SRA737. The Response Evaluable population included patients who had measurable disease at baseline, received at least 75% of planned SRA737 doses in Cycle 1 and had at least one post-baseline disease assessment or discontinued treatment due to disease progression, adverse event, or death.

[3] = test system: patients with advanced cancer; details: in combination with low-dose gemcitabine; anogenital, cervical, high-grade serous ovarian, rectal and small cell lung cancer; cited from earlier work
[4] = Plasma SRA737 pharmacokinetics (LC-MS assay, non-compartmental methods); type: in vivo, human; details: for Cmax / AUC(0-t) / Tmax / Vd/F / half-life: human, oral; for AUC(0-t): read-out: AUC0-24; for Tmax / Vd/F / half-life: plasma
Description: Serial sampling of blood for PK assessment was conducted before and after dosing with single-agent SRA737 (9 time points over 48 h) on Day −7 to Day −4 and on Cycle 1 Day 22; in addition, samples were drawn pre-dose on Days 1, 8, and 15 of Cycle 1, and pre-dose on Day 1 of each subsequent cycle. Plasma SRA737 concentrations were quantified using a fully validated liquid chromatography-mass spectrometry assay with a lower limit of quantitation of 5 ng/ml as previously described.
Safety and response variables were summarized using descriptive statistics and PK parameters were determined using non-compartmental methods. A concentration-effect model was used to evaluate the relationship between plasma SRA737 concentrations and the mean change from baseline in QT interval corrected for heart rate using Fridericia’s formula (QTcF) in time-matched ECG measurements and PK samples collected on Day −7 to Day −4 and during Cycle 1.

[5] = 600 mg, repeat doses, N 7, plasma, mean ± standard deviation
[6] = 800 mg, repeat doses, N 31, plasma, mean ± standard deviation
[7] = 1000 mg, repeat doses, N 16, plasma, mean ± standard deviation
[8] = single SRA737 dose, at or above the dose level of 300 mg QD

Compound: N#Cc1cnc(Nc2cc(NC[C@H]3CNCCO3)c(C(F)(F)F)cn2)cn1 [SRA737, (R)-5-((4-((morpholin-2-ylmethyl)amino)-5-(trifluoromethyl)pyridin-2-yl)amino)pyr azine-2-carbonitrile]
- pH-dependent solubility [1]: minimal to moderate pH-dependent solubility
- disease control rate (at least four cycles with at least stable disease as best response) ([2]; HGSOC, 11/26): 42.3%
- disease control rate (at least four cycles with at least stable disease as best response) ([2]; HNSCC, 3/4): 75.0%
- disease control rate (at least four cycles with at least stable disease as best response) ([2]; NSCLC, 3/8): 37.5%
- patients with reduction or no increase in sum of RECIST target tumour diameters and/or stable disease for 4 or more cycles ([2]; in vivo): 29 patients
- reductions in tumour size ([2]; in vivo): up to 29 % reduction
- disease control rate (at least four cycles with at least stable disease as best response) ([2]; mCRPC, 8/13): 61.5%
- RECIST responses (complete or partial) ([2]; monotherapy, expansion cohort patients with predefined genetic mutations): no complete or partial RECIST responses; also recorded: no partial or complete RECIST responses
- RECIST tumour responses [3]: RECIST partial tumour responses were observed
- Systemic exposure (Cmax and AUC) between dose levels ([4]; 600 mg vs 1000 mg dose levels): tended to be comparable
- CL/F [4, 5]: 26.9 ± 2.85 L/h
- Cmin [4, 5]: 230 ± 123 ng/mL
- Exposure relative to minimum effective concentration extrapolated from preclinical models ([4]; 800 mg QD and 1000 mg QD): exceeded the minimum effective concentration
- Cmin ([4]; 800 mg QD, repeat doses, N 31, plasma, mean ± standard deviation): 312 ng/mL and 312 ± 166 ng/mL
- CL/F [4, 6]: 38.0 ± 22.2 L/h
- CL/F [4, 7]: 39.7 ± 9.20 L/h
- Cmin [4, 7]: 499 ± 185 ng/mL
- Cmax [4, 5]: 2470 ± 328 ng/mL
- AUC(0-t) [4, 5]: 22100 ± 2450 ng·h/mL
- Cmax [4, 6]: 2480 ± 679 ng/mL
- AUC(0-t) [4, 6]: 24700 ± 8580 ng·h/mL
- Cmax [4, 7]: 2490 ± 666 ng/mL
- AUC(0-t) [4, 7]: 27200 ± 9210 ng·h/mL
- Tmax ([4]; 600 mg, repeat doses on C1D8, C1D22, C2D8, C2D15 or C2D22, N 7, plasma, median (minimum-maximum), read-out: tmax): 2 h
- Vd/F ([4]; 600 mg, repeat doses, N 7, plasma, mean ± standard deviation, read-out: Vd/F): 320 ± 61.1 L
- half-life ([4]; 600 mg, repeat doses, N 7, plasma, mean ± standard deviation, read-out: t½ (converted)): 8.22 ± 1.27 h
- Tmax ([4]; 800 mg, repeat doses on C1D8, C1D22, C2D8, C2D15 or C2D22, N 31, plasma, median (minimum-maximum), read-out: tmax): 2 h
- Vd/F ([4]; 800 mg, repeat doses, N 31, plasma, mean ± standard deviation, read-out: Vd/F): 454 ± 299 L
- half-life ([4]; 800 mg, repeat doses, N 31, plasma, mean ± standard deviation, read-out: t½ (converted)): 8.25 ± 1.17 h
- Tmax ([4]; 1000 mg, repeat doses on C1D8, C1D22, C2D8, C2D15 or C2D22, N 16, plasma, median (minimum-maximum), read-out: tmax): 2 h
- Vd/F ([4]; 1000 mg, repeat doses, N 16, plasma, mean ± standard deviation, read-out: Vd/F): 477 ± 87 L
- half-life ([4]; 1000 mg, repeat doses, N 16, plasma, mean ± standard deviation, read-out: t½ (converted)): 8.45 ± 1.06 h
- half-life ([4]; 1000 mg, repeated doses of 600, 800 and 1000 mg QD, read-out: Estimated elimination half-life (t½) values, range): 6.23 to 10.4 h
- Tmax ([4]; 1000 mg, repeated doses of 600, 800 and 1000 mg QD, read-out: Tmax, generally occurred): 2 to 4 h
- Tmax ([4]; 1000 mg, repeated doses of 600, 800 and 1000 mg QD, read-out: Tmax, ranged): 1 to 6 h
- Vd/F ([4]; 1000 mg, repeated doses of 600, 800 and 1000 mg QD, read-out: individual apparent volume of distribution (Vd/F) values, range): 215 to 1590 L
- time plasma concentration of 100 nM (37.9 ng/mL) was achieved, all patients [4, 8]: at least 24 h
- time plasma concentration of 100 nM (37.9 ng/mL) was achieved, majority of patients [4, 8]: up to 48 h
